From patent publication US20140024700A1, “BLOOD-BORNE MIRNAS AS SURROGATE MARKERS OF DRUG EFFICACY FOR CARDIAC CONDITIONS” (miRagen Therapeutics, Inc., priority 2010, published 2014)
Where two headings read alike, the source gives them in different places.

System: plasma miRNAs
Details: 8 weeks
Experimental: To evaluate plasma biomarkers over time, surgically implanted catheters were used for non-invasive bi-weekly blood draws in the Dahl salt-sensitive rat model of congestive heart failure described in Example 1. Changes in plasma miRNA biomarkers with disease progression and therapeutic treatment with an LNA-modified antisense oligonucleotide targeting miR-208a (M−10101; SEQ ID NO: 12) were evaluated. The flowing experimental groups were tested:
The M-10591 oligonucleotide (SEQ ID NO:13) targets miR-67 from C. elegans, which is not expressed in mammalian tissue, and therefore was used as a control. Dahl salt-sensitive rats were implanted with catheters at week zero and baseline blood was taken. Following catheter implant surgery, high-salt diet was initiated. One week following the initiation of the 4.0% NaCl diet, rats were dosed subcutaneously (s.c.) with saline or antimiRs at 25 mg/kg once every 2 weeks. On alternating weeks (non-injection weeks) 1.5 mls of blood was drawn from the catheter for plasma isolation. Animals were sacrificed 8 weeks after the initial injection.
Plasma and tissue molecular endpoints were evaluated using Taqman RT-PCR assays. Specifically, RNA from plasma samples was isolated using Trizol LS (Invitrogen). Synthetic C. elegans miRNA sequences for lin-4 and miR-2 were added at a constant concentration to each sample to monitor purification efficiency and for normalization. Tissue RNA was isolated using standard Trizol RNA isolation. Standard ABI Taqman miRNA assay protocols were used to determine relative miRNA levels.
Changes in plasma miRNA levels between rats suffering from hypertension-induced heart failure (H S/saline group) and rats treated with an antimiR-208a oligonucleotide (HS/M-10101) were assessed at 8 weeks by both miRNA Taqman array card analysis (Tables 2 and 3) and real-time PCR analysis (Table 4).

[1] = Down Regulated, HS-Saline vs. HS-10101, Real Time PCR
[2] = Up-regulated, HS-Saline vs. HS-10101, Real Time PCR
[3] = decreased in response to treatment, HS-saline/HS-10101, array card
[4] = increased in response to treatment, HS-10101/HS-Saline, array card

M-10101: antimiR targeting bases 2 to 17 of mature miR-208a, LNA and DNA linked by phosphorothioate bonds; 5′-CTTTTTGCTCGTCTTA-3′ (SEQ ID NO: 12) (all phosphorothioate, sugars by position and methylation of C not given here; LNA/DNA mixmer; listed as Homo sapiens)
Fold change of plasma hsa-miR-16 [1]: 3.45 fold
Fold change of plasma hsa-miR-20a [1]: 1.92 fold
Fold change of plasma hsa-miR-20b [1]: 2.10 fold
Fold change of plasma hsa-miR-21 [1]: 1.48 fold
Fold change of plasma hsa-miR-22 [1]: 1.50 fold
Fold change of plasma hsa-miR-27a [1]: 2.10 fold
Fold change of plasma hsa-miR-92a [1]: 2.32 fold
Fold change of plasma hsa-miR-93 [1]: 2.87 fold
Fold change of plasma hsa-miR-106b [1]: 2.57 fold
Fold change of plasma hsa-miR-122 [1]: 1.36 fold
Fold change of plasma hsa-miR-126 [1]: 1.30 fold
Fold change of plasma hsa-miR-133a [1]: 1.29 fold
Fold change of plasma hsa-miR-140 [1]: 2.13 fold
Fold change of plasma hsa-miR-150 [1]: 2.07 fold
Fold change of plasma hsa-miR-185 [1]: 2.35 fold
Fold change of plasma hsa-miR-210 [1]: 2.31 fold
Fold change of plasma hsa-miR-223 [1]: 3.02 fold
Fold change of plasma hsa-miR-320 [1]: 3.16 fold
Fold change of plasma hsa-miR-378 [1]: 1.74 fold
Fold change of plasma hsa-miR-378* [1]: 1.38 fold
Fold change of plasma hsa-miR-423-5p [1]: 2.52 fold
Fold change of plasma hsa-miR-499 [1]: 1.26 fold
Fold change of plasma hsa-miR-19b [2]: 2.68 fold
Fold change of plasma hsa-miR-125a-5p [2]: 2.05 fold
Fold change of plasma hsa-miR-143 [2]: 1.53 fold
Fold change of plasma hsa-miR-145 [2]: 2.17 fold
Fold change of plasma hsa-miR-195 [2]: 2.10 fold
Fold change of plasma hsa-miR-199b-5p [2]: 2.39 fold
Fold change of plasma hsa-miR-204 [2]: 2.18 fold
Fold change of plasma hsa-miR-214 [2]: 1.49 fold
Fold change of plasma hsa-let-7b [3]: 1.09 fold
Fold change of plasma hsa-miR-16 [3]: 2.04 fold
Fold change of plasma hsa-miR-17 [3]: 1.41 fold
Fold change of plasma hsa-miR-18a [3]: 2.01 fold
Fold change of plasma hsa-miR-20a [3]: 2.43 fold
Fold change of plasma hsa-miR-20b [3]: 4.87 fold
Fold change of plasma hsa-miR-24 [3]: 1.17 fold
Fold change of plasma hsa-miR-25 [3]: 1.33 fold
Fold change of plasma hsa-miR-26b [3]: 1.98 fold
Fold change of plasma hsa-miR-27a [3]: 2.74 fold
Fold change of plasma hsa-miR-27b [3]: 1.18 fold
Fold change of plasma hsa-miR-29c [3]: 1.34 fold
Fold change of plasma hsa-miR-30a [3]: 1.28 fold
Fold change of plasma hsa-miR-30b [3]: 1.21 fold
Fold change of plasma hsa-miR-92a [3]: 1.20 fold
Fold change of plasma hsa-miR-93 [3]: 2.93 fold
Fold change of plasma hsa-miR-101a [3]: 1.11 fold
Fold change of plasma hsa-miR-103a [3]: 1.16 fold
Fold change of plasma hsa-miR-106b [3]: 2.15 fold
Fold change of plasma hsa-miR-122 [3]: 1.59 fold
Fold change of plasma hsa-miR-125b-5p [3]: 1.51 fold
Fold change of plasma hsa-miR-133a [3]: 2.21 fold
Fold change of plasma hsa-miR-140-5p [3]: 3.23 fold
Fold change of plasma hsa-miR-148a [3]: 2.49 fold
Fold change of plasma hsa-miR-181c [3]: 1.37 fold
Fold change of plasma hsa-miR-182 [3]: 1.39 fold
Fold change of plasma hsa-miR-184 [3]: 1.42 fold
Fold change of plasma hsa-miR-185 [3]: 7.02 fold
Fold change of plasma hsa-miR-188-5p [3]: 1.76 fold
Fold change of plasma hsa-miR-192 [3]: 1.92 fold
Fold change of plasma hsa-miR-195 [3]: 1.73 fold
Fold change of plasma hsa-miR-197 [3]: 1.52 fold
Fold change of plasma hsa-miR-199a-5p [3]: 4.95 fold
Fold change of plasma hsa-miR-203 [3]: 1.13 fold
Fold change of plasma hsa-miR-218 [3]: 1.32 fold
Fold change of plasma hsa-miR-222 [3]: 1.11 fold
Fold change of plasma hsa-miR-223 [3]: 1.88 fold
Fold change of plasma hsa-miR-301a [3]: 1.79 fold
Fold change of plasma hsa-miR-320a [3]: 1.89 fold
Fold change of plasma hsa-miR-324-5p [3]: 1.39 fold
Fold change of plasma hsa-miR-335-5p [3]: 1.07 fold
Fold change of plasma hsa-miR-340-5p [3]: 1.19 fold
Fold change of plasma hsa-miR-365 [3]: 2.61 fold
Fold change of plasma hsa-miR-423-5p [3]: 4.18 fold
Fold change of plasma hsa-miR-451 [3]: 3.28 fold
Fold change of plasma hsa-miR-484 [3]: 1.46 fold
Fold change of plasma hsa-miR-486-5p [3]: 1.49 fold
Fold change of plasma hsa-miR-542-3p [3]: 11.10 fold
Fold change of plasma hsa-miR-744 [3]: 1.83 fold
Fold change of plasma hsa-let-7c [4]: 1.54 fold
Fold change of plasma hsa-let-7e [4]: 1.66 fold
Fold change of plasma hsa-let-7g [4]: 3.02 fold
Fold change of plasma hsa-let-7d [4]: 1.98 fold
Fold change of plasma hsa-miR-19a [4]: 1.90 fold
Fold change of plasma hsa-miR-19b [4]: 3.27 fold
Fold change of plasma hsa-miR-26a [4]: 1.39 fold
Fold change of plasma hsa-miR-28 [4]: 6.61 fold
Fold change of plasma hsa-miR-29a [4]: 1.31 fold
Fold change of plasma hsa-miR-29b [4]: 2.67 fold
Fold change of plasma hsa-miR-30c [4]: 1.37 fold
Fold change of plasma hsa-miR-30e [4]: 1.06 fold
Fold change of plasma hsa-miR-31 [4]: 1.45 fold
Fold change of plasma hsa-miR-99b [4]: 2.63 fold
Fold change of plasma hsa-miR-107 [4]: 5.54 fold
Fold change of plasma hsa-miR-125a-3p [4]: 12.16 fold
Fold change of plasma hsa-miR-125a-5p [4]: 5.34 fold
Fold change of plasma hsa-miR-126 [4]: 1.27 fold
Fold change of plasma hsa-miR-126-5p (miR-126*) [4]: 2.01 fold
Fold change of plasma hsa-miR-128a [4]: 1.75 fold
Fold change of plasma hsa-miR-130a [4]: 2.30 fold
Fold change of plasma hsa-miR-130b [4]: 1.26 fold
Fold change of plasma hsa-miR-138 [4]: 1.08 fold
Fold change of plasma hsa-miR-139-5p [4]: 1.14 fold
Fold change of plasma hsa-miR-142-3p [4]: 25.04 fold
Fold change of plasma hsa-miR-142-5p [4]: 1.98 fold
Fold change of plasma hsa-miR-143 [4]: 8.47 fold
Fold change of plasma hsa-miR-145 [4]: 2.07 fold
Fold change of plasma hsa-miR-146a [4]: 1.17 fold
Fold change of plasma hsa-miR-152 [4]: 2.05 fold
Fold change of plasma hsa-miR-155 [4]: 1.73 fold
Fold change of plasma hsa-miR-181a [4]: 3.00 fold
Fold change of plasma hsa-miR-186 [4]: 1.83 fold
Fold change of plasma hsa-miR-187 [4]: 1.60 fold
Fold change of plasma hsa-miR-191 [4]: 1.23 fold
Fold change of plasma hsa-miR-196b [4]: 11.73 fold
Fold change of plasma hsa-miR-199a-3p [4]: 3.14 fold
Fold change of plasma hsa-miR-204 [4]: 4.61 fold
Fold change of plasma hsa-miR-214 [4]: 1.57 fold
Fold change of plasma hsa-miR-296-5p [4]: 18.29 fold
Fold change of plasma hsa-miR-302a [4]: 2.10 fold
Fold change of plasma hsa-miR-324-3p [4]: 1.07 fold
Fold change of plasma hsa-miR-331-3p [4]: 1.53 fold
Fold change of plasma hsa-miR-339-5p [4]: 2.18 fold
Fold change of plasma hsa-miR-340-3p [4]: 1.86 fold
Fold change of plasma hsa-miR-342-3p [4]: 1.15 fold
Fold change of plasma hsa-miR-375 [4]: 1.32 fold
Fold change of plasma hsa-miR-449a [4]: 2.99 fold
Fold change of plasma hsa-miR-487b [4]: 2.67 fold
Fold change of plasma hsa-miR-532-3p [4]: 1.72 fold
Fold change of plasma hsa-miR-574-3p [4]: 2.20 fold
Fold change of plasma hsa-miR-30d [4]: 1.29 fold
